Laboratory results from ChEMBL document CHEMBL1201862, “PubChem BioAssay data set” (2004).
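Cultured in 96-well plates, cells were exposed to test compound for 48 hours across five concentrations. Abbreviation: GI50, concentration required for 50% inhibition of growth.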 The source made the active and inactive calls. No stated cut-off is given here; in the data, active = GI50 up to about 1.1 µM and inactive = higher.

Tests used:
Assay in all cases: growth of human tumour cells (NCI), 48 h
[1] = test system: M19-MEL
[2] = test system: SNB-78
[3] = test system: DMS-114
[4] = test system: XF498
[5] = test system: KM-20L2
[6] = test system: LXFL 529
[7] = test system: HOP-18
[8] = test system: DLD-1
[9] = test system: RXF 631

Measured: GI50

CCOC(=O)C1C(c2ccc(Br)cc2)N(Cc2ccccc2)C(c2ccc(Br)cc2)C(C(=O)OC)S1(=O)=O (stereo not drawn)
inactive: [1] 74.6 µM | [2] > 100 µM | [3] 66.4 µM | [4] > 100 µM | [5] > 100 µM | [6] > 100 µM | [7] 21.9 µM | [8] > 100 µM

O=C(N/C(=C\c1ccc2c(c1)OCO2)c1nc2ccccc2[nH]1)c1ccccc1
inactive: [1] 3.03 µM | [2] 39.4 µM | [3] 2.39 µM | [4] 15.5 µM | [5] 33.7 µM | [6] 20.4 µM | [7] 43.6 µM | [8] 30.8 µM

CC(C)N(C(=O)C12C3C4C1(I)C1C2C3(I)C41C(=O)N(C(C)C)C(C)C)C(C)C (stereo not drawn)
inactive: [1] > 47 µM | [4] > 100 µM | [5] > 100 µM | [6] > 67.6 µM | [9] > 100 µM | [7] > 100 µM | [8] > 56.5 µM

Nc1nc(=O)c(/N=N/c2ccccc2)c(N)[nH]1
inactive: [1] 39.3 µM | [2] 19.6 µM | [3] 25.6 µM | [4] 60.1 µM | [5] 59.2 µM | [7] 38 µM | [8] 43.1 µM

O=C(O/N=C1/CCCC/C1=C\c1ccccc1)c1ccccc1
inactive: [1] > 100 µM | [3] 17.1 µM | [4] > 100 µM | [5] > 100 µM | [6] 28.4 µM | [7] > 100 µM | [8] 30.5 µM

N#Cc1nc(Nc2ccc(Cl)cc2)sc1N
inactive: [1] 12.4 µM | [2] 10.8 µM | [3] 3.07 µM | [4] 14.3 µM | [5] 17.1 µM | [6] 3.55 µM | [7] 29.4 µM | [8] 17.9 µM

CCCNC(=O)C(C)(Cl)C(=O)c1ccccc1O (stereo not drawn)
inactive: [1] > 100 µM | [2] > 100 µM | [3] > 100 µM | [5] > 100 µM | [6] > 100 µM | [7] > 100 µM | [8] > 100 µM

CN(CCN(C)C(=O)CCn1cc(F)c(=O)[nH]c1=O)C(=O)CCn1cc(F)c(=O)[nH]c1=O
inactive: [1] > 100 µM | [3] > 100 µM | [4] > 100 µM | [5] > 100 µM | [6] > 100 µM

O=C1CC2CCN(C(=O)c3ccccc3)CC2CCN1.O=C1CCC2CC(C(=O)c3ccccc3)CCC2CN1 (stereo not drawn)
inactive: [1] > 100 µM | [2] > 100 µM | [3] > 100 µM | [5] > 100 µM | [6] > 100 µM | [7] > 100 µM | [8] > 100 µM

CC(=O)OCC(OC(C)=O)C(OC(C)=O)C(OC(C)=O)C(=O)CNn1c(-c2ccc(C)cc2)nc2ccccc2c1=O (stereo not drawn)
inactive: [1] > 100 µM | [2] > 100 µM | [3] 54.1 µM | [4] 16.5 µM | [5] > 100 µM | [6] > 100 µM

CCCCCNC(=O)C1C(=O)N(CCCCC)C(=O)/C1=N\N (stereo not drawn)
inactive: [1] 86.5 µM | [2] 23.6 µM | [5] 48.6 µM | [6] 41.2 µM | [7] 50 µM | [8] 70.6 µM

C=CCc1cc(OC)c(O)c(C(=O)/C=C/c2ccc(OC)c(OC)c2)c1
inactive: [2] 28.8 µM | [3] 17.8 µM | [4] 14.1 µM | [5] > 10 µM | [6] 20.9 µM | [9] 25.4 µM | [8] 18.4 µM

Clc1c(Cl)c2c(Cl)c(Cl)c1C[PH](c1ccccc1)(c1ccccc1)CC[PH](c1ccccc1)(c1ccccc1)Cc1c(Cl)c(Cl)c(c(Cl)c1Cl)C[PH](c1ccccc1)(c1ccccc1)CC[PH](c1ccccc1)(c1ccccc1)C2
inactive: [1] 2.81 µM | [2] 3.82 µM | [3] 1.68 µM | [5] 2.65 µM | [6] 2.15 µM | [9] 6.68 µM | [7] 8.17 µM | [8] 2.37 µM

CCOC(=O)/C=C(/CN1C(=O)c2ccccc2C1=O)c1ccccc1
inactive: [1] > 100 µM | [2] 88.9 µM | [3] > 100 µM | [4] > 100 µM | [5] > 100 µM | [6] > 100 µM | [7] > 100 µM | [8] > 100 µM

Cc1ccc(C(=O)C#Cc2cnc(O)nc2O)cc1
inactive: [1] 14.7 µM | [2] 11.9 µM | [7] 18.6 µM | [8] 10.3 µM

CN1CC(C(=O)C2C(=O)c3ccccc3C2=O)C(=O)C(=O)C(C(=O)C2C(=O)c3ccccc3C2=O)C1 (stereo not drawn)
inactive: [3] > 100 µM | [4] > 100 µM | [9] > 100 µM | [8] > 100 µM

COC(=O)[C@@H]1CSC(=S)N1C(=O)C[C@H]1CC=CC[C@H]1CC(=O)Sc1ccccc1
inactive: [1] 23.4 µM | [2] 22.3 µM | [4] 16.5 µM | [5] 20.9 µM | [6] 15.3 µM | [7] 29.8 µM | [8] 17 µM

C/C(=N\NS(=O)(=O)c1ccccc1)c1ccc[n+]([O-])n1
inactive: [1] > 100 µM | [2] 63.7 µM | [3] 97.3 µM | [5] > 100 µM | [6] 37.8 µM | [9] > 100 µM | [7] > 100 µM | [8] 44.9 µM

O=C1NC(=O)C(=Cc2c3ccccc3cc3ccccc23)C(=O)N1
inactive: [1] > 100 µM | [4] > 100 µM | [5] > 100 µM | [6] 79.4 µM | [9] > 100 µM | [7] 83.8 µM
